Source: paper PMC6505380, “An Extensively Humanized Mouse Model to Predict Pathways of Drug Disposition and Drug/Drug Interactions, and to Facilitate Design of Clinical Trials” (Drug Metabolism and Disposition, 2019)
Where two headings read alike, the source gives them in different places.

Key:
CYP3A4 [1] = molecular target: T1, CYP3A4 (Homo sapiens, UniProt P08684); assay: 7-Benzyloxyquinoline O-debenzylation in liver microsomes of rifampicin- or vehicle-treated 8HUM mice; format: in vitro ADME; conditions: liver microsomes of rifampicin-treated 8HUM mice
T1 construct: pooled rifampicin-treated male and female 8HUM mice (8HUM) or pooled human liver microsomes (HLM); host or cells: liver microsomes: pooled human liver; liver of 8HUM mice carrying human CYP3A4/CYP3A7 under the human promoter

CYP1A2 [2] = molecular target: T2, CYP1A2 (Homo sapiens, UniProt P05177)
T2 sequence (P05177 1-516): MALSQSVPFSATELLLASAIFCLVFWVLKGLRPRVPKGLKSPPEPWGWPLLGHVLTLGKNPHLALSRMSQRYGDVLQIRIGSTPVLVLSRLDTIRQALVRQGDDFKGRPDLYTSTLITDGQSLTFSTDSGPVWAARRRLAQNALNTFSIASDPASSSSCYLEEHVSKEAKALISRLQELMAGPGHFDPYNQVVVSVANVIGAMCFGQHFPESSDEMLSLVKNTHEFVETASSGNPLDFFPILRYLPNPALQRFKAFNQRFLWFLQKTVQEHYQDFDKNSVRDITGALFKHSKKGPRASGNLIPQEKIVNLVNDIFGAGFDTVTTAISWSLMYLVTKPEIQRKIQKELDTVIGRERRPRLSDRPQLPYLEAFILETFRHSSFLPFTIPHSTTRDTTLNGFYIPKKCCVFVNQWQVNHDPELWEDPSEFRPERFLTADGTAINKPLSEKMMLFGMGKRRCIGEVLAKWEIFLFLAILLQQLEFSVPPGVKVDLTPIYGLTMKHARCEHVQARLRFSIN
Experimental: (§2) A mixture of either 7-methoxyresorufin or 7-ethoxyresorufin (1 μM) and 8HUM liver microsomes or HLM (∼0.38 mg protein/ml) in 100 mM potassium phosphate buffer (pH 7.4) supplemented with MgCl2 (3.3 mM) was incubated at 37°C for 5 minutes before the addition of NADPH (final concentration 1.2 mM). […] Slopes of the linear part of the kinetic curves were calculated using Ascent Software Version 2.4.1 (Labsystems). For each reaction two controls, with and without reaction product resorufin (40 pmol) were run. Fluorescence was measured from both control wells and the difference in fluorescence intensity between wells with and without resorufin was used for the conversion of the relative fluorescence units to the picomoles of the reaction product.

CYP3A4 [3] = assay: CYP3A4 induction by PXR activators in humanized CAR/PXR/CYP3A4 mice; conditions: CAR/PXR/CYP3A4 model (Supplemental Fig. 4)
Source text: We therefore sought to identify a specific, clinically relevant PXR agonist that was nontoxic. […] Subsequent studies were therefore undertaken using SJW to induce CYP3A4 expression in 8HUM mice.

CYP2C9 [4] = molecular target: T3, CYP2C9 (Homo sapiens, UniProt P11712); assay: Enzyme inhibition assay, tolbutamide hydroxylation (HLM, 8HUM microsomes); conditions: tolbutamide 2 μM in cocktail, furafylline 3, enoxacin 200, fluconazole 300, sulfaphenazole 3, quinidine 3, paroxetine 10, ketoconazole 1 μM
Experimental: (§1) After a 5-minute preincubation at 37°C, reactions were initiated by addition of NADPH (1.3 mM). […] The samples were then centrifuged at 3000g for 55 minutes at 4°C, and an aliquot of the supernatant fraction was analyzed by LC-MS/MS. All experiments were performed at least in triplicate.

CYP1A2 [5] = molecular target: T2, CYP1A2; assay: Enzyme inhibition assay, caffeine to paraxanthine (HLM, 8HUM microsomes); conditions: caffeine 220 μM in cocktail, furafylline 3, enoxacin 200, fluconazole 300, sulfaphenazole 3, quinidine 3, paroxetine 10, ketoconazole 1 μM
Experimental: as §1

CYP2D6 [6] = molecular target: CYP2D6 (Homo sapiens, UniProt P10635, R296C/S486T); assay: Enzyme inhibition assay, debrisoquine 4-hydroxylation (HLM, 8HUM microsomes); conditions: 8HUM microsomes […]; debrisoquine 67 μM in cocktail; furafylline 3, enoxacin 200, fluconazole 300, sulfaphenazole 3, quinidine 3, paroxetine 10, ketoconazole 1 μM
Experimental: as §1

CYP2D6 [7] = assay: as above; conditions: for Debrisoquine (4-OH Debrisoquine) activity, percent of activity measured in the absence of inhibitor: HLM […], debrisoquine 67 μM in cocktail, furafylline 3, enoxacin 200, fluconazole 300, sulfaphenazole 3, quinidine 3, paroxetine 10, ketoconazole 1 μM
Experimental: as §1

[8] = Pharmacokinetics of cassette-dosed probe drugs in 8HUM mice with or without rifampicin pretreatment; conditions: female, mouse, in vivo, po, AUCall, female 8HUM mice, oral cassette: caffeine, debrisoquine, tolbutamide 5 mg/kg, midazolam 3 mg/kg
Experimental: Female 8HUM mice received either two daily intraperitoneal doses of RIF (n = 4; 20–26 weeks) or vehicle (corn oil; n = 4; 25–29 weeks). […] Blood samples (10 μl) were collected at the indicated time points after dosing, mixed immediately with 10 μl of heparin (15 IU/ml), snap frozen in liquid nitrogen, and stored at approximately −70°C prior to analysis (see Supplemental Data for details).
Pharmacokinetic parameters were calculated by Phoenix WinNonlin version 8.0.0.3176 (Certara, Princeton, NJ).
Fig. 2. […] Data shown are mean ± S.D.

CYP3A4 [9] = molecular target: T1, CYP3A4; assay: Kinetic parameters of 1-hydroxyl midazolam formation in liver microsomes (HLM, 8HUM); format: in vitro ADME; conditions: pH 7.4
Experimental: All samples were handled in amber tubes under conditions of subdued light for the duration of the procedure. […] The samples were then centrifuged at 3000g for 55 minutes at 4°C and an aliquot of the supernatant fraction was analyzed by LC-MS/MS.
Calibration curves were constructed with authentic metabolite standards and linear regression analysis used to calculate the amount of metabolite formed in each test sample. […] The 7-ethoxyresorufin O-deethylation assay was carried out as detailed below.

CYP2C9 [10] = molecular target: T3, CYP2C9; conditions: sulfaphenazole 50 μM
[11] = set-up: method as in Cross et al., 2014; conditions: WT mice; ref Cross et al., 2014; cited from earlier work
[12] = Osimertinib pharmacokinetics in 8HUM mice: effect of rifampicin and β-naphthoflavone; conditions: female, mouse, in vivo, po, 25 mg/kg; for AUC / Cmax: female 8HUM mice, osimertinib 25 mg/kg oral
Source text: Humans and rodents metabolize drugs down different pathways and also generate different metabolites both in their site of oxidation as well as in different metabolite ratios when multiple sites of oxidation are involved. […] Mice were pretreated with either RIF or a combination of RIF and β-naphthoflavone (BNF), an aryl hydrocarbon receptor agonist that induces P450s in the CYP1A gene family.
Fig. 4. […] Osimertinib structure and sites of metabolism in humans (C) are also shown. […] Panel B prints no name for the measured substance; it is presumably Osimertinib, the name printed in panel A.

CYP1A2 [13] = molecular target: T2, CYP1A2; assay: in vitro; conditions: 8HUM, mouse, microsomes, pH 7.4, Inhibition of 7-methoxyresorufin metabolism
Experimental: as §2

[14] = RIF + BNF 80 mg/kg i.p. daily 3 days
[15] = RIF in diet (equivalent 10 mg/kg) 3 days

T1 sequence (P08684 whole entry): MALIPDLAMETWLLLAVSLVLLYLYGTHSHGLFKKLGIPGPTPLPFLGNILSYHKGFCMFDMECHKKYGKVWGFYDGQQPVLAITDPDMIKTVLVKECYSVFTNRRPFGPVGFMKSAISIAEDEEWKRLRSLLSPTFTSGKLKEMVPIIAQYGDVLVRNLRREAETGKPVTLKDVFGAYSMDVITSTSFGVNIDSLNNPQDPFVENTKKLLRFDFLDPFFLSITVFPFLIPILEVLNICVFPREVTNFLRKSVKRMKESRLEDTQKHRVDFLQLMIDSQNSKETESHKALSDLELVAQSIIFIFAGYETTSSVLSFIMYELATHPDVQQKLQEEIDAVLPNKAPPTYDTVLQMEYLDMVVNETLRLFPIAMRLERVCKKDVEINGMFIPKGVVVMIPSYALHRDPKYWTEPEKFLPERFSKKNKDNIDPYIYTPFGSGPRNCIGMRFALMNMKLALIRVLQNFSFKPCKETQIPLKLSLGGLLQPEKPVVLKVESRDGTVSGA
T3 sequence (P11712 whole entry): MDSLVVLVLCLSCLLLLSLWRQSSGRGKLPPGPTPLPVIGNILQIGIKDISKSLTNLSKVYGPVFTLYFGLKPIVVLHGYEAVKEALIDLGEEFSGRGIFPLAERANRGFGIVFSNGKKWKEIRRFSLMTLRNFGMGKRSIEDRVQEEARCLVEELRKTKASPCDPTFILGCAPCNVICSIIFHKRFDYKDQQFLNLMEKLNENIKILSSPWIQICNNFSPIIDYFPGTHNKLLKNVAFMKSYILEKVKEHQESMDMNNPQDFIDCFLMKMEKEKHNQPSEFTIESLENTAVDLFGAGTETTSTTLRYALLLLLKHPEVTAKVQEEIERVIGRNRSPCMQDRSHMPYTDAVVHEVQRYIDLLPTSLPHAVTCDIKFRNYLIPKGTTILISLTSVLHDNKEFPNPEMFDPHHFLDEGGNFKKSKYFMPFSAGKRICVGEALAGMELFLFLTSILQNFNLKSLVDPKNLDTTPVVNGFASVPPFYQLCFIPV

Structure (SMILES): c1ccc(COc2ccc3cccnc3c2)cc1 [7-BQ, 7-benzyloxyquinoline]
- Rate of 7-BQ hydroxylation (metabolism) (CYP3A4 [1]): 4218 ± 550 pmol/min per milligram

Structure (SMILES): COc1ccc2nc3ccc(=O)cc-3oc2c1 [7-methoxyresorufin]
- Rate of 7-methoxyresorufin metabolism (CYP1A2 [2]): 42.84 ± 9.93 pmol/min per milligram

Structure (SMILES): O=C1Nc2ccc(Cl)cc2[C@@](C#CC2CC2)(C(F)(F)F)O1 [EFV, efavirenz]
- Induction of CYP3A4 (CYP3A4 [3]): effective inducers of CYP3A4

Structure (SMILES): OC(Cn1cncn1)(Cn1cncn1)c1ccc(F)cc1F [Fluconazole, fluconazole]
- Tolbutamide (OH-Tolbutamide) activity, percent of activity measured in the absence of inhibitor (CYP2C9 [4]; 8HUM microsomes […]): 41 ± 33%
- Tolbutamide (OH-Tolbutamide) activity, percent of activity measured in the absence of inhibitor (CYP2C9 [4]; HLM […]): 35 ± 21%
- Caffeine (Paraxanthine) activity, percent of activity measured in the absence of inhibitor (CYP1A2 [5]; 8HUM microsomes […]): 100 ± 31%
- Caffeine (Paraxanthine) activity, percent of activity measured in the absence of inhibitor (CYP1A2 [5]; HLM […]): 114 ± 37%
- Debrisoquine (4-OH Debrisoquine) activity, percent of activity measured in the absence of inhibitor (CYP2D6 [6]): 88 ± 19%
- Debrisoquine (4-OH Debrisoquine) activity, percent of activity measured in the absence of inhibitor (CYP2D6 [7]): 96 ± 9%

Structure (SMILES): Cc1nc2c([nH]1)c(=O)n(C)c(=O)n2Cc1ccco1 [Furafylline, furafylline]
- Tolbutamide (OH-Tolbutamide) activity, percent of activity measured in the absence of inhibitor (CYP2C9 [4]; 8HUM microsomes […]): 63 ± 19%
- Tolbutamide (OH-Tolbutamide) activity, percent of activity measured in the absence of inhibitor (CYP2C9 [4]; HLM […]): 103 ± 25%
- Debrisoquine (4-OH Debrisoquine) activity, percent of activity measured in the absence of inhibitor (CYP2D6 [6]): 91 ± 13%
- Debrisoquine (4-OH Debrisoquine) activity, percent of activity measured in the absence of inhibitor (CYP2D6 [7]): 65 ± 9%

Structure (SMILES): Cc1ncc2n1-c1ccc(Cl)cc1C(c1ccccc1F)=NC2 [Midazolam, midazolam]
- AUC ([8]; rifampicin 10 mg/kg i.p. daily for 2 days pretreatment): 68.8 ± 21.1 ng·h/mL
- AUC ([8]; vehicle (corn oil) i.p. pretreatment): 860 ± 138 ng·h/mL
- Km at 2 min (CYP3A4 [9]; both sexes, 8HUM, mouse, liver microsomes of pooled rifampicin-treated 8HUM mice): 1.2 ± 0.3 µM
- Km at 2 min (CYP3A4 [9]; human, pooled human liver microsomes): 0.73 ± 0.2 µM

Structure (SMILES): CCC1(c2ccccc2)C(=O)NC(=O)NC1=O [PB, phenobarbital]
- Induction of CYP3A4 (CYP3A4 [3]): effective inducers of CYP3A4

Structure (SMILES): Fc1ccc([C@@H]2CCNC[C@H]2COc2ccc3c(c2)OCO3)cc1 [Paroxetine, paroxetine]
- Debrisoquine (4-OH Debrisoquine) activity, percent of activity measured in the absence of inhibitor (CYP2D6 [7]): 52 ± 11%
- Species difference in extent of inhibition of debrisoquine 4-hydroxylation (HLM vs 8HUM microsomes) (CYP2D6 [7]; HLM vs microsomes from 8HUM mice): 4 fold

Structure (SMILES): C=C[C@H]1C[N@@]2CC[C@H]1C[C@@H]2[C@@H](O)c1ccnc2ccc(OC)cc12 [Quinidine, quinidine]
- Debrisoquine (4-OH Debrisoquine) activity, percent of activity measured in the absence of inhibitor (CYP2D6 [6]): 43 ± 5%

Structure (SMILES): Nc1ccc(S(=O)(=O)Nc2ccnn2-c2ccccc2)cc1 [Sulfaphenazole, sulfaphenazole]
- Remaining tolbutamide 4-hydroxylation activity in the presence of inhibitor (CYP2C9 [10]; liver microsomes of control 8HUM mice): 2.01 ± 0.33 pmol/min per milligram
- Remaining tolbutamide 4-hydroxylation activity in the presence of inhibitor (CYP2C9 [10]; liver microsomes of rifampicin-treated 8HUM mice): 11.43 ± 9.38 pmol/min per milligram
- Tolbutamide (OH-Tolbutamide) activity, percent of activity measured in the absence of inhibitor (CYP2C9 [4]; 8HUM microsomes […]): 28 ± 15%
- Tolbutamide (OH-Tolbutamide) activity, percent of activity measured in the absence of inhibitor (CYP2C9 [4]; HLM […]): 14 ± 4%

Structure (SMILES): C=CC(=O)Nc1cc(Nc2nccc(-c3cn(C)c4ccccc34)n2)c(OC)cc1N(C)CCN(C)C [osimertinib]
- half-life [11]: 3.5 h
- half-life ([12]; 8HUM mice, osimertinib 25 mg/kg by oral gavage): 20 h
- AUC ([12]; Control (normal RM1 diet)): 3750 ± 614 ng·h/mL
- Cmax ([12]; Control (normal RM1 diet)): 199 ± 29 ng/mL
- AUC [12, 14]: 661 ± 132 ng·h/mL
- Cmax [12, 14]: 71 ± 7 ng/mL
- AUC [12, 15]: 2140 ± 631 ng·h/mL
- Cmax [12, 15]: 139 ± 26 ng/mL

Structure (SMILES): O=c1cc(-c2ccccc2)oc2c1ccc1ccccc12 [α-naphthoflavone]
- inhibition at 3.33 μM (CYP1A2 [13]): 75%
